Test results: patent US20230405002A1, “COMBINATIONS OF DIACYLGLYCEROL ACYLTRANSFERASE 2 INHIBITORS AND ACETYL-COA CARBOXYLASE INHIBITOR” (Pfizer Inc., priority 2020, published 2023)
Counter-ions that a name gives are not always drawn.

Tests used:
human DGAT2 (hDGAT2) = human DGAT2 (hDGAT2) (Homo sapiens (Human), UniProt Q96PD7); experiment: In vitro DGAT2 assay, determination of IC50 values; assay type: biochemical; details: geometric mean; hDGAT2 membrane fraction
human liver microsomes = experiment: Intrinsic clearance in human liver microsomes; details: human liver microsome assay, 1 μM
Experimental: The high throughput human microsomal stability assay was performed in a 384-well format (Di, L., et al. 2012, Eur. J. Med. Chem., 57, 441-448). All liquid handling and incubation were conducted with a Biomek FX (Beckman Coulter, Inc., Indianapolis, IN), equipped with one 3-position Mecour heated deck positions. Pooled human liver microsomes of 50 donors (Lot: HLM-103) were purchased from BD Biosciences (Bedford, MA). Each incubation contained test compound (1 μM), human liver microsomes (0.25 μM CYP protein equivalent to 0.806 mg/mL protein concentration), NADPH 20.9 mM, MgCl2 (3.3 mM) and potassium phosphate buffer (100 mM at pH 7.4). The final reaction volume was 45 μL containing 0.1% DMSO. The incubations were conducted at 37° C. At various time points (e.g. 1, 4, 7, 12, 20, 25, 45 and 60 min), cold acetonitrile with mass spectrometry (MS) internal standard (Example 39A, WO1999/57125) was added to quench the reaction. The plates were centrifuged at 3000 rpm for 1 min at 4° C. […] The plates were sealed and subsequently analyzed using LC-MS/MS. Control plates were prepared in the same manner without adding the NADPH cofactor to monitor any non-CYP/FMO catalyzed decline. […] The data are presented as the mean+/− standard deviation, with the number of replicates (n) shown.

human DGAT2 (hDGAT2), sequence (Q96PD7 whole entry): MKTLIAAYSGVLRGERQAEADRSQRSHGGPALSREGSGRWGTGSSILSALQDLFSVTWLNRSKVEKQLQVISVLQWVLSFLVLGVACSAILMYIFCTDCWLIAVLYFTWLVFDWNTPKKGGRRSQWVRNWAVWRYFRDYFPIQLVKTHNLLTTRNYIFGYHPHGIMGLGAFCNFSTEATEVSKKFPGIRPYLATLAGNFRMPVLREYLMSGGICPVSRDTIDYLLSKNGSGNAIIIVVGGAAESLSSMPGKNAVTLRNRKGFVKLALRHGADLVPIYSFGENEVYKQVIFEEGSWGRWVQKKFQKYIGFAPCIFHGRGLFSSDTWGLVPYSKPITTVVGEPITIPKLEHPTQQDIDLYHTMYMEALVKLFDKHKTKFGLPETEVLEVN

Compound	IC50 (human DGAT2 (hDGAT2)) [nM]	CLint (+/− STD Dev) (human liver microsomes) [µL/min/mg]
CCOc1cccnc1Oc1cncc(-c2ncc(C(=O)NC3CCCNC3C)cn2)c1 (mixture of isomers) [Example 23, 2-{5-[(3-ethoxypyridin-2-yl)oxy]pyridin-3-yl}-N-(2-methylpiperidin-3-yl)pyrimidine-5-carboxamide, trifluoroacetate salt, mixture of stereoisomers]	14000	–
CCOc1cccnc1Oc1cncc(-c2ncc(C(=O)N[C@H]3CC[C@H](C(F)(F)F)NC3)cn2)c1 (racemic) [Example 9, rac-2-{5-[(3-ethoxypyridin-2-yl)oxy]pyridin-3-yl}-N-[(3R,6S)-6-(trifluoromethyl)piperidin-3-yl]pyrimidine-5-carboxamide or rac-2-{5-[(3-ethoxypyridin-2-yl)oxy]pyridin-3-yl}-N-[(3R,6R)-6-(trifluoromethyl)piperidin-3-yl]pyrimidine-5-carboxamide]	–	>290
CCOc1cccnc1Oc1cncc(-c2ncc(C(=O)N[C@H]3CNCC[C@H]3C)cn2)c1 (racemic) [Example 20, rac-2-{5-[(3-ethoxypyridin-2-yl)oxy]pyridin-3-yl}-N-[(3R,4R)-4-methylpiperidin-3-yl]pyrimidine-5-carboxamide, trifluoroacetate salt]	2100	–
CCOc1cccnc1Oc1cncc(-c2ncc(C(=O)N[C@H]3CNCCC3(F)F)cn2)c1 (single isomer, unassigned) [Example 15, N-[(3S)-4,4-difluoropiperidin-3-yl]-2-{5-[(3-ethoxypyridin-2-yl)oxy]pyridin-3-yl}pyrimidine-5-carboxamide, trifluoroacetate salt or N-[(3R)-4,4-difluoropiperidin-3-yl]-2-{5-[(3-ethoxypyridin-2-yl)oxy]pyridin-3-yl}pyrimidine-5-carboxamide, trifluoroacetate salt]	3300	–
CCOc1cccnc1Oc1cncc(-c2ncc(C(=O)N[C@@H]3CNCC[C@H]3F)cn2)c1 [Example 5, 2-{5-[(3-Ethoxypyridin-2-yl)oxy]pyridin-3-yl}-N-[(3R,4R)-4-fluoropiperidin-3-yl]pyrimidine-5-carboxamide]	110	<7
CCOc1cccnc1Oc1cncc(-c2ncc(C(=O)N[C@H]3CNC[C@H](F)C3)cn2)c1 [Example 7, 2-{5-[(3-ethoxypyridin-2-yl)oxy]pyridin-3-yl}-N-[(3R,5R)-5-fluoropiperidin-3-yl]pyrimidine-5-carboxamide, trifluoroacetate salt]	42	–
CCOc1cccnc1Oc1cncc(-c2ncc(C(=O)N[C@H]3CNCC[C@@H]3F)cn2)c1 [Example 12, 2-{5-[(3-ethoxypyridin-2-yl)oxy]pyridin-3-yl}-N-[(3S,4S)-4-fluoropiperidin-3-yl]pyrimidine-5-carboxamide, trifluoroacetate salt]	590	<7
CCOc1cccnc1Oc1cncc(-c2ncc(C(=O)NC3CNCC(F)(F)C3)cn2)c1 (stereo not shown) [Example 17, N-(5,5-difluoropiperidin-3-yl)-2-{5-[(3-ethoxypyridin-2-yl)oxy]pyridin-3-yl}pyrimidine-5-carboxamide]	230	–
